Experimental data from patent publication US5834318A, “Screening of combinatorial peptide libraries for selection of peptide ligand useful in affinity purification of target proteins” (Bayer Corporation, priority 1995, dated 1998).
Values belong to the substance of their own block, whether it stands above or below them. Where no end group is shown, it is not given here.

Tests used:
Factor IX zymogen [1] = molecular target: T1, Factor IX zymogen (Homo sapiens, UniProt P00740); experiment: Plasma-derived Factor IX affinity chromatography; format: binding; design: A 1.0 ml injection of human citrated plasma was contacted with an acetyl-YANKGY-TSK column; from tissue; host or cells: human citrated plasma; conditions: 1.0 ml human citrated plasma
Method: (§1) Affinity Purification of Target Protein Affinity purification of target protein was used to assess the ability to purify proteins with the peptide sequences identified as being specific. […] The deprotected peptide-resin was dry packed into a blank column as described above and washed with 20 column volumes of 20% methanol/water, then 10 column volumes of Buffer A, and assayed by sequential 1.0 mL injections of 1) Buffer A blank, 2) 0.5% HSA, and 3) target protein in 0.5% HSA. Non-specifically bound proteins were washed off the column in a step gradient of 1.0M NaCl for two column volumes, and the target protein was eluted from the column in a weak acid solution.
Plasma-Derived Factor IX Affinity Chromatography The relevance of this library-derived peptide ligand is to purify human Factor IX zymogen from unpurified human plasma. A 1.0 ml injection of human citrated plasma was contacted with an acetyl-YANKGY-TSK column in the manner taught in the above example. Flow through and acid peaks were collected on ice and immediately assayed for total protein, SDS-PAGE and Western blot analyses. […] Samples were normalized to total protein as described before. There are numerous protein bands in the starting material, the predominant being albumin. The Factor IX band is not visible in any fraction in the Commassie stained gel. […] With one pass over the YANKGY-TSK affinity column, analyzing total protein and by Western blot, the approximate purification was 200 fold from plasma.

streptavidin = streptavidin (Streptomyces avidinii, UniProt P22629); conditions: well known in the art; cited from earlier work
[2] = molecular target: T2, human serum albumin (HSA) (Homo sapiens, UniProt P02768); experiment: Binding of carrier protein to peptide-resin column; conditions: 0.5% HSA; eluted by the salt wash, no peak during acid elution
T2 construct: purchased Miles, Inc., Clayton, N.C
Method: as §1
(§2) Factor IX/Albumin Affinity Purification The library-derived peptide identified above binds and purifies a mixture of a commercially available, highly purified Factor IX zymogen in a solution of human serum albumin. […] This peptide-resin was tested for its ability to bind Factor IX. […] However, this was eluted by the salt wash as evidenced by the absence of a peak during the acid elution. In contrast, when Factor IX was added to the HSA, there was a distinct peak eluted by the acid.

Factor IX zymogen [3] = molecular target: T1, Factor IX zymogen; experiment: Two color peptide library immunostaining chromatography of hexamer library; format: binding; design: purchased Enzyme Research Labs; South Bend, Ind; conditions: 6 beads isolated from two independent analyses
Method: (§3) HPLC Library Immuno-Assays To differentiate between detecting reagent-binding and target-binding peptide-resin beads, we developed a two color peptide library staining chromatography technique. FIG. 1 is a schematic of the preferred embodiment of the technique. All assays were performed on an Ultrafast Microprotein Analyzer in a 2.1 mm I.D.×150mm long stainless steel column (volume=520 μL) at 37° C. Dry library resin was packed into the column by vacuum, then the column was attached to the detector flow cell and washed with 20 column volumes of 20% methanol/water, 5 column volumes of 100% Buffer A (10 mM HEPES, 100 mM NaCl, 2.5 mM CaCl2, 20 mg/mL D-mannitol; all from Sigma Chemical Co.; St. Louis, Mo.), then 5 column volumes of 50% Buffer B (Buffer A with 1.0M NaCl) to clean the resin. The complete assay comprised of seven chromatography injection programs sequentially linked and executed as a batch (EXChrom Chromatography Data System, Scientific Software, Inc.; San Ramon, Calif.). Each injection program was 90 min long. At the start of each injection program, a 1.0 mL sample loop of reagent was injected at 200 μL/min for 3.5 min, then allowed to perfuse the column at 5 μL/min for 50 min before the flow increased to 400/μL/min for the duration of the run. At 60-75 min, a salt gradient from 0.1M to 1.0M NaCl eluted non-specific binding proteins. […]

Factor IX zymogen [4] = molecular target: T1, Factor IX zymogen; experiment: Factor IX/albumin affinity purification on peptide-resin column; format: binding; design: purchased Enzyme Research Labs; South Bend, Ind
Method: as §1, §2
A direct correlation was seen between the acid peak area and the amount of Factor IX injected. […] Aliquots of fractions taken from this run were assayed for Factor IX detection by ELISA (data not shown). […] Factor IX may be partially denatured during the acid elution which could account for the lack of full recovery based on ELISA results. Indeed, controls of adding acid to Factor IX prior to analysis in the ELISA do show a 40 to 50% decrease in the ELISA signal. The remainder of the fractions were precipitated in cold (-20° C.) acetone and analyzed by reducing SDS-PAGE, normalizing sample to total protein.

[5] = molecular target: T3, Ribonuclease S (RNase S) protein (Bos taurus, UniProt P61823); experiment: Two color peptide library immunostaining chromatography (HPLC library immunoassay), validation; format: binding; conditions: peptide-resin diluted 1:20 w/w with TSK-Blank
T3 sequence (P61823 47-150 limits assumed): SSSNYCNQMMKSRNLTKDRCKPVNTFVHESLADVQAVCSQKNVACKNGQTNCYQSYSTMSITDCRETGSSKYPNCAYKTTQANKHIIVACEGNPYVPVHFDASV
Method: as §3

RNase S protein = molecular target: T4, RNase S protein (Bos taurus, UniProt P61823); experiment: HPLC affinity chromatography validation on peptide-resin; format: binding; conditions: 42 nmoles RNase S protein injected; 2 % acetic acid wash, peak at 22 min
T4 sequence (P61823 47-150 limits assumed): T3 sequence (P61823 47-150 limits assumed)
Method: as §1
Ribonuclease S Protein Affinity Chromatography In this embodiment the HPLC affinity methodology is validated by the previously described RNase S protein/YNFEVL peptide system. Peptide synthesis was performed as taught in the previous section. […] 42 nmoles of RNase S protein was injected in a 1.0 mL volume onto the column at 200 μL/min for 3 min. The flow was decreased to 5 μL/min for 5 min to perfuse the column, then increased to 400 μL/min to wash off the unbound protein. At 13 min, an injection of 1.0 mL Buffer A with 1.0M NaCl eluted non-specific binding proteins, then the column was returned to 0.1M NaCl until 19 min when a steep gradient to 2 % acetic acid in water and a flow of 800 μL/min began. […]

T1 sequence (P00740 29-461 limits assumed): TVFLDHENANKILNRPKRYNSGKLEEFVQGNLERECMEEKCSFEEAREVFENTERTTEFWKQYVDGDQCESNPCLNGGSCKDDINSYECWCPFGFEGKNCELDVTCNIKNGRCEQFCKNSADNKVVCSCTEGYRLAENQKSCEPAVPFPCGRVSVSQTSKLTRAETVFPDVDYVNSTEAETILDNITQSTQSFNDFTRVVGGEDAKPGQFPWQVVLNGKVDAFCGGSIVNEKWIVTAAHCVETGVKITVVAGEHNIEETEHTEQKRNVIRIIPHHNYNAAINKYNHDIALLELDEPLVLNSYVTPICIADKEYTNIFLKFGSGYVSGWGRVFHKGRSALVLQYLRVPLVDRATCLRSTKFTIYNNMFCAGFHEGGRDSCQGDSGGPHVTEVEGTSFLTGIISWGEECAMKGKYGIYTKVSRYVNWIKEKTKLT
T2 sequence (P02768 25-609): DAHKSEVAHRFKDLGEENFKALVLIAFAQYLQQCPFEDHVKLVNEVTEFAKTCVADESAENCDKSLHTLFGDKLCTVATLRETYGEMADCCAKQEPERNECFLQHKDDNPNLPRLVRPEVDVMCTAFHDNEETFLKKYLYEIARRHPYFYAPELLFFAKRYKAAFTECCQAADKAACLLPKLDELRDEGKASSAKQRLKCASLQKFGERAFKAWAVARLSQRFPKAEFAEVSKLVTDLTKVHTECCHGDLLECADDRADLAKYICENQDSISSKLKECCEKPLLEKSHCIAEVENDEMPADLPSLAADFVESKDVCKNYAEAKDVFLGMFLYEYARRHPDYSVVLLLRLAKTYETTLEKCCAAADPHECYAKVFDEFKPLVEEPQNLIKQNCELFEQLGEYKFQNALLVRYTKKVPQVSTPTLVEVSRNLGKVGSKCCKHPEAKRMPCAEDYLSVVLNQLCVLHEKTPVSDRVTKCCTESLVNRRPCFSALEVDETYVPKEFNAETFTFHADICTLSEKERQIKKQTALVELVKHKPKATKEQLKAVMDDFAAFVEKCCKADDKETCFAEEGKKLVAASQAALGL

Factor IX in acid peak by Western blot (Factor IX zymogen [1]): a very large band in the acid peak | Factor IX in flow through by Western blot (Factor IX zymogen [1]): no Factor IX in the flow through
Substance: Ac-YANKGY [acetyl-YANKGY-TSK]

bead staining in library immunoassay (red = target specific) (Factor IX zymogen [3]): red bead
Substance: YNYFNQ

Further lines, the substance ahead of its results:

Substance: HPQ
binding to streptavidin (streptavidin): will bind streptavidin

Substance: YANKGY [YANKGY-TSK]
HSA binding to column [2]: bound to the column to a small extent | bead staining in library immunoassay (red = target specific) (Factor IX zymogen [3]): red bead | Factor IX detected in NaCl peak by ELISA, % of amount injected (Factor IX zymogen [4]; 220 μg Factor IX in HSA): 17% | Factor IX detected in acid peak by ELISA, % of amount injected (Factor IX zymogen [4]; 220 μg Factor IX in HSA): 25% | Factor IX detected in flow through peak by ELISA (Factor IX zymogen [4]; 220 μg Factor IX in HSA): No Factor IX was detected | Factor IX in NaCl wash and acid peak by Western blot (Factor IX zymogen [4]; 220 μg Factor IX in HSA): dark bands corresponding to Factor IX | Factor IX in flow-through fractions by Western blot (Factor IX zymogen [4]; 220 μg Factor IX in HSA): no detectable Factor IX | binding of Factor IX to peptide-resin (Factor IX zymogen [4]; Factor IX in 0.5% HSA, acid elution): does bind Factor IX | approximate purification of Factor IX from plasma (Factor IX zymogen [1]; one pass, by total protein and Western blot): ~200 fold

Substance: YNFEVL [YNFEVL-TSK]
frequency of dark blue beads (non-specific or immunoreagent-specific interactions) [5]: less than 0.01% | frequency of red beads (target protein interacting with peptide-resin beads) ([5]; RNase S protein in HSA carrier): 5% | elution of bound RNase S protein (RNase S protein): target protein eluted in the acid wash
